Test results taken from patent US20130011845A1, “MICRORNA REGULATING THE INSULIN SIGNALING PATHWAY, AND METHOD FOR SCREENING MATERIAL FOR CONTROLLING THE ACTION OF A TARGET THEREOF” (SNU R & DB Foundation, priority 2009, published 2013).

Legend:
MCF-7 cell lines = experiment: cell proliferation by counting the number of cells; format: cell-based, human; details: MCF-7 cell lines transduced; counted on day 1, 4, 5, 6, 7 and 8; compared to untreated or siGFP cells
From the text: It has been known that when human miRNAs, that is, miR-200 family (miR-200a, miR-200b, miR-200c, miR-141, and miR-429) are transduced into human cell lines, cell growth is promoted (Park, S Y et al., 2009, Nat Struct Mol Biol 16, 23-29). In MCF-7 cell lines not treated with anything, and MCF-7 cell lines transduced with siRNA targeting GFP (siGFP, SEQ ID: 1: 5′-UGAAUUAGAUGGCGAUGUU-3′, Samchonri), miR-200 family [miR-141(has-miR-141, SEQ ID: 2: 5′-[…]-3′), miR-200b (has-miR-200b, SEQ ID: 3: 5′-[…]-3′), miR-429(has-miR-429, SEQ ID: 4: 5′-[…]-3′)] and miR-29b (known to inhibit cell proliferation), on day 1, 4, 5, 6, 7 and 8, the inventors counted the number of cells and measured cell proliferation.

KLF11 3′UTR = experiment: dual-luciferase 3′UTR reporter assay, pAC-KLF11; format: cell-based; details: luciferase reporter with KLF11 3′UTR, human Hela cell lines; average of at least two independent experiments
Description: (§1) In order to determine whether the target genes identified in Example 7 are in actuality targets of miR-8 and miR-200 family miRNAs, the inventors performed cloning. In other words, […] containing the miRNA target sites. Specifically, in order to obtain cDNAs of respective target genes, from drosophila S2 cell lines or human Hela cell lines, total RNA was extracted by using RNeasy mini kit (QIAGEN, US). 1 μg of total RNA and 1 μl of Oligo-dT (Invitrogen, US) were charged with up to 50 μl of distilled water, and placed into SuperScript First-Strand Synthesis System (Invitrogen, US), followed by RT-PCR reaction. Through the reaction at 65° C. for 6 min, at 4° C. for 5 min, at 42° C. for 60 min, at 95° C. for 5 min, and at 4° C. for 5 min, cDNA was synthesized. By using the cDNA (3˜5 μg) as template, and using a primer pair on respective genes noted in Table 3 and PCR Mastermix (Promega, US), PCR was performed on 3′UTR of ush, Lap1, CG8445, dbo, Lar, Ced-12, CG12333, cbt, FOG2, SEPT7, RIN2, SHC1, HOXB5, LF11, TCF7L1, ERBB21P, ELMO2, BAP1, WDR37, KLHL20, PTPRD, RASSF2 and VAC14 from among the target genes selected in Example 7. Herein, PCRP on atro as a drosophila control gene was also performed. After the reaction was completed, the PCR product on each gene's 3′UTR region was cleaved by each of the following restriction enzymes:
(§2) Then, it was cloned into pAC5.1 luciferase vector (a kind gift of Elisa Izaurralde) cleaved by the same restriction enzymes so as to produce a reporter plasmid having a miR-8 or miR-200 family target sequence in luciferase gene's 3′UTR sequence.
(§3) Reporter plasmids and renilla luciferase expression vectors (Promega, US), as noted in Table 4, and miRNAs of miR-200 family of miR-141, miR-200a (hsa-miR-200a, SEQ ID: 87: 5′-[…]-3′), miR-200b, miR-200c (has-miR-200c, SEQ ID: 88: 5′-[…]-3′) and miR-429, and miR-8 (dme-miR-8, SEQ ID: 89: 5′-[…]-3′) were bought from Samchonri and cotransfected into drosophila S2 cell lines or human Hela cell lines. Then, the activities of luciferase were measured through dual-luciferase assay (Promega, US) by a luminometer (Biorad). Then, 7 gene pairs that respond both to miR-8 and to mir-200 family miRNAs in Drosophila and human cells, respectively were identified (see FIG. 15).

RASSF2 3′UTR = experiment: dual-luciferase 3′UTR reporter assay, pAC-RASSF2; format: cell-based; details: luciferase reporter with RASSF2 3′UTR, human Hela cell lines; average of at least two independent experiments
Description: as §1, §2, §3

RIN2 3′UTR = experiment: dual-luciferase 3′UTR reporter assay, pAC-RIN2; format: cell-based; details: luciferase reporter with RIN2 3′UTR, human Hela cell lines; average of at least two independent experiments
Description: as §1, §2, §3

BAP1 3′UTR = experiment: dual-luciferase 3′UTR reporter assay, pAC-BAP1; format: cell-based; details: luciferase reporter with BAP1 3′UTR, human Hela cell lines; average of at least two independent experiments
Description: as §1, §2, §3

PTPRD 3′UTR = experiment: dual-luciferase 3′UTR reporter assay, pAC-PTPRD; format: cell-based; details: luciferase reporter with PTPRD 3′UTR, human Hela cell lines; average of at least two independent experiments
Description: as §1, §2, §3

ELMO2 3′UTR = experiment: dual-luciferase 3′UTR reporter assay, pAC-ELMO2; format: cell-based; details: luciferase reporter with ELMO2 3′UTR, human Hela cell lines; average of at least two independent experiments
Description: as §1, §2, §3

WDR37 3′UTR = experiment: dual-luciferase 3′UTR reporter assay, pAC-WDR37; format: cell-based; details: luciferase reporter with WDR37 3′UTR, human Hela cell lines; average of at least two independent experiments
Description: as §1, §2, §3

Substance: 5′-UAAUACUGCCUGGUAAUGAUGA-3′ (listed as RNA, chemistry not given here) [miR-200b]
- cell proliferation (number of cells) (MCF-7 cell lines): increased cell proliferation
- Represion fold, KLF11 (KLF11 3′UTR): 1.02 fold
- Represion fold, RASSF2 (RASSF2 3′UTR): 1.28 fold
- Represion fold, RIN2 (RIN2 3′UTR): 1.91 fold
- Represion fold, BAP1 (BAP1 3′UTR): 0.79 fold
- Represion fold, PTPRD (PTPRD 3′UTR): 0.89 fold
- Represion fold, ELMO2 (ELMO2 3′UTR): 1.04 fold
- Represion fold, WDR37 (WDR37 3′UTR): 1.16 fold

Substance: 5′-UAACACUGUCUGGUAAAGAUGG-3′ (listed as RNA, chemistry not given here) [miR-141]
- cell proliferation (number of cells) (MCF-7 cell lines): increased cell proliferation
- Represion fold, KLF11 (KLF11 3′UTR): 1.03 fold
- Represion fold, RASSF2 (RASSF2 3′UTR): 0.90 fold
- Represion fold, RIN2 (RIN2 3′UTR): 1.10 fold
- Represion fold, BAP1 (BAP1 3′UTR): 0.84 fold
- Represion fold, PTPRD (PTPRD 3′UTR): 0.89 fold
- Represion fold, ELMO2 (ELMO2 3′UTR): 0.73 fold
- Represion fold, WDR37 (WDR37 3′UTR): 1.07 fold

Substance: 5′-UAAUACUGUCUGGUAAAACCGU-3′ (listed as RNA, chemistry not given here) [miR-429]
- cell proliferation (number of cells) (MCF-7 cell lines): increased cell proliferation
- Represion fold, KLF11 (KLF11 3′UTR): 1.07 fold
- Represion fold, RASSF2 (RASSF2 3′UTR): 1.01 fold
- Represion fold, RIN2 (RIN2 3′UTR): 1.41 fold
- Represion fold, BAP1 (BAP1 3′UTR): 0.67 fold
- Represion fold, PTPRD (PTPRD 3′UTR): 0.75 fold
- Represion fold, ELMO2 (ELMO2 3′UTR): 0.89 fold
- Represion fold, WDR37 (WDR37 3′UTR): 1.31 fold

Substance: 5′-UAACACUGUCUGGUAACGAUGU-3′ (listed as RNA, chemistry not given here) [miR-200a]
- Represion fold, KLF11 (KLF11 3′UTR): 1.20 fold
- Represion fold, RASSF2 (RASSF2 3′UTR): 1.36 fold
- Represion fold, RIN2 (RIN2 3′UTR): 2.49 fold
- Represion fold, BAP1 (BAP1 3′UTR): 1.04 fold
- Represion fold, PTPRD (PTPRD 3′UTR): 1.25 fold
- Represion fold, ELMO2 (ELMO2 3′UTR): 1.22 fold
- Represion fold, WDR37 (WDR37 3′UTR): 0.76 fold
